What was measured:
[1] = system: mouse leukemia cells L1210; experiment: Anti-tumor activity in L1210-transplanted mice (Reference Example 3, Table 4); assay type: in vivo; conditions: 0.05% Tween 80, L1210-transplanted CDF1 mice
Procedure: The Samples A, B and C synthesized in Reference Examples 1 and 2 were evaluated for their anti-tumor activities by the following method:
In the abdominal cavities of CDFl mice (male, 6-week old, 6-10 mice/group), 105 mouse leukemia cells L1210 subcultured in DBA/2 mice were transplanted. Taking the day of transplantation as Day 0, the test drugs were separately administered intraperitoneally to the mice on Day 1, Day 5 and Day 9, totaling 3 times. Each drug was administered after dissolving or suspending it in 0.05% Tween 80 solution. The evaluation of the effectiveness was performed based on the T/C value which is obtained by the following equation as well as the number of survived mice on Day 30. [formula]

[2] = system: Cisplatin-resistant mouse leukemia L1210/CDDP cells; experiment: Anti-tumor activity in cisplatin-resistant L1210-transplanted mice (Table 2); assay type: in vivo; conditions: L1210/CDDP-transplanted CDF1 mice
Procedure: In the abdominal cavities of CDFl mice (male, 6-week old, 5-10 mice/group, 105 mouse leukemia L1210 cells passaged in DBA/2 mice were transplanted. Defining the day of transplantation as Day 0, the compounds 1-5 of the present invention were separately administered intraperitoneally to mice on Day 1, Day 5 and Day 9, totaling 3 times. Each compound was administered after dissolving it in distilled water for injection. The evaluation of the anti-tumor activities of the platinum complexes against the L1210-transplanted mice was performed by T/C value which is obtained by the following equation: [formula]
In the abdominal cavities of CDFl mice (male, 6-week old, 5-10 mice/group), 105 Cisplatin-resistant mouse leukemia L1210/CDDP cells passaged in DBA/2 mice were transplanted. Defining the day of transplantation as Day 0, the compounds of the present invention and control drugs were separately administered intraperitoneally to mice on Day 1, Day 5 and Day 9, totaling 3 times.
The compounds of the present invention and carboplatin were administered after dissolving them in distilled water for injection and cisplatin was used after dissolving it in physiological saline for injection. The effectiveness of the compounds was evaluated by using the T/C value as in Example 7.

[3] = 10 mg/kg i.p. on Day 1, 5 and 9
[4] = 25 mg/kg i.p. on Day 1, 5 and 9
[5] = 50 mg/kg i.p. on Day 1, 5 and 9
[6] = 100 mg/kg i.p. on Day 1, 5 and 9
[7] = 200 mg/kg i.p. on Day 1, 5 and 9
[8] = 2.5 mg/kg i.p. on Day 1, 5 and 9
[9] = 7.5 mg/kg i.p. on Day 1, 5 and 9

| SMILES | Number of Survived Mice (Day 30) ([1]; 1 mg/kg i.p. on Day 1, 5 and 9) | Number of Survived Mice (Day 30) [1, 3] | Survived Days (Mean ± Standard Deviation) [1, 3] | T/C [1, 3] | Number of Survived Mice (Day 30) [1, 4] | Survived Days (Mean ± Standard Deviation) [1, 4] | T/C [1, 4] | Number of Survived Mice (Day 30) [1, 5] | Survived Days (Mean ± Standard Deviation) [1, 5] | T/C [1, 5] | Number of Survived Mice (Day 30) [1, 6] | Survived Days (Mean ± Standard Deviation) [1, 6] | T/C [1, 6] | Number of Survived Mice (Day 30) [1, 7] | Survived Days (Mean ± Standard Deviation) [1, 7] | T/C [1, 7] | Number of Survived Mice (Day 30) [2, 4] | Survived Days (Mean ± Standard Deviation) [2, 4] | T/C [2, 4] | further results |
| --- | --- | --- | --- | --- | --- | --- | --- | --- | --- | --- | --- | --- | --- | --- | --- | --- | --- | --- | --- | --- |
| CC(=O)[C-]1C(=O)CC(C)OC1=O.CC(=O)[C-]1C(=O)CC(C)OC1=O.N[C@@H]1CCCC[C@H]1N.O.[Pt+2] (relative stereo) [Sample A, [Pt(II)(trans-l-1,2-diaminocyclohexane)](3-acetyl-6-methyltetrahydropyran-2,4-dione)2.H2 O] | 0/6 | 0/6 | 11.5 ± 1.2 days | 137% | 0/6 | 14.2 ± 3.2 days | 169% | 0/6 | 17.0 ± 3.0 days | 202% | 0/6 | 15.5 ± 5.0 days | 185% | 0/6 | 6.0 days | 71% | – | – | – | – |
| CC(=O)[C-]1C(=O)CC(C)OC1=O.CC(=O)[C-]1C(=O)CC(C)OC1=O.N[C@@H]1CCCC[C@H]1N.O.[Pt+2] (relative stereo) [Sample B, [Pt(II)(trans-l-1,2-diaminocyclohexane)](3-acetyl-6-methyltetrahydropyran-2,4-dione)2.H2 O] | – | – | – | – | 0/6 | 8.5 ± 0.5 days | 101% | 0/6 | 8.8 ± 0.8 days | 105% | 0/6 | 9.2 ± 1.5 days | 110% | 0/6 | 9.5 ± 2.3 days | 113% | – | – | – | – |
| CC(=O)[C-]1C(=O)CCOC1=O.CC(=O)[C-]1C(=O)CCOC1=O.N[C@@H]1CCCC[C@H]1N.O.[Pt+2] (relative stereo) [Sample C, [Pt(II)(trans-l-1,2-diaminocyclohexane)](3-acetyltetrahydropyran-2,4-dione)2.H2 O] | 0/6 | 0/6 | 9.8 ± 1.6 days | 117% | 0/6 | 9.5 ± 0.5 days | 113% | 0/6 | 8.7 ± 2.2 days | 104% | 0/6 | 8.3 ± 0.8 days | 99% | 0/6 | 6.2 ± 1.5 days | 74% | – | – | – | Survived Days (Mean ± Standard Deviation) ([1]; 1 mg/kg i.p. on Day 1, 5 and 9): 8.7 ± 0.8 days; T/C ([1]; 1 mg/kg i.p. on Day 1, 5 and 9): 104% |
| N.N.O=C([O-])C1(C(=O)[O-])CCC1.[Pt+2] [Carboplatin] | – | – | – | – | – | – | – | – | – | – | – | – | – | – | – | – | 0/6 | 9.0 ± 1.1 days | 99% | Number of Survived Mice (Day 30) [2, 5]: 0/6; Survived Days (Mean ± Standard Deviation) [2, 5]: 9.7 ± 0.8 days; T/C [2, 5]: 107%; Number of Survived Mice (Day 30) [2, 6]: 0/6; Survived Days (Mean ± Standard Deviation) [2, 6]: 9.3 ± 0.8 days; T/C [2, 6]: 102%; Number of Survived Mice (Day 30) [2, 7]: 0/6; Survived Days (Mean ± Standard Deviation) [2, 7]: 7.3 ± 1.5 days; T/C [2, 7]: 80% |
| N.N.[Cl][Pt][Cl] [Cisplatin] | – | – | – | – | – | – | – | – | – | – | – | – | – | – | – | – | 0/6 | 7.2 ± 1.6 days | 79% | Number of Survived Mice (Day 30) [1, 8]: 0/6; Survived Days (Mean ± Standard Deviation) [1, 8]: 13.0 ± 2.3 days; T/C [1, 8]: 155%; Number of Survived Mice (Day 30) ([1]; 5 mg/kg i.p. on Day 1, 5 and 9): 0/5; Survived Days (Mean ± Standard Deviation) ([1]; 5 mg/kg i.p. on Day 1, 5 and 9): 13.8 ± 1.1 days; T/C ([1]; 5 mg/kg i.p. on Day 1, 5 and 9): 164%; Number of Survived Mice (Day 30) [1, 9]: 0/6; Survived Days (Mean ± Standard Deviation) [1, 9]: 18.3 ± 6.2 days; T/C [1, 9]: 218%; Number of Survived Mice (Day 30) [2, 8]: 0/6; Survived Days (Mean ± Standard Deviation) [2, 8]: 9.3 ± 1.0 days; T/C [2, 8]: 102%; Number of Survived Mice (Day 30) ([2]; 5 mg/kg i.p. on Day 1, 5 and 9): 0/6; Survived Days (Mean ± Standard Deviation) ([2]; 5 mg/kg i.p. on Day 1, 5 and 9): 8.3 ± 0.5 days; T/C ([2]; 5 mg/kg i.p. on Day 1, 5 and 9): 91%; Number of Survived Mice (Day 30) [2, 3]: 0/6; Survived Days (Mean ± Standard Deviation) [2, 3]: 8.7 ± 0.8 days; T/C [2, 3]: 96% |

— patent US5302587A, “Platinum (II) complex and agent for treating malignant tumor” (Toray Industries, Inc., priority 1989, dated 1994)
